Reference: paper PMC12406204 (Journal of Medicinal Chemistry, 2025)
Like-named read-outs stand apart in the source and are kept apart here.

What was measured:
CB1R [1] = molecular target: T1, CB1R (Homo sapiens, UniProt P21554); assay: CB1R radioligand binding competition ([3H]CP55,940); parameters: host or cells: CHO-CB1 C3 cell line; details: for CB1R % at 1 μM: percentage displacement of specific [3H]CP 55,940 binding at 1 μM, n = 2; for Ki: displacement of [3H]CP 55,940, membranes of CHO-CB1 C3 cells, n = 3
T1 sequence (P21554 whole entry): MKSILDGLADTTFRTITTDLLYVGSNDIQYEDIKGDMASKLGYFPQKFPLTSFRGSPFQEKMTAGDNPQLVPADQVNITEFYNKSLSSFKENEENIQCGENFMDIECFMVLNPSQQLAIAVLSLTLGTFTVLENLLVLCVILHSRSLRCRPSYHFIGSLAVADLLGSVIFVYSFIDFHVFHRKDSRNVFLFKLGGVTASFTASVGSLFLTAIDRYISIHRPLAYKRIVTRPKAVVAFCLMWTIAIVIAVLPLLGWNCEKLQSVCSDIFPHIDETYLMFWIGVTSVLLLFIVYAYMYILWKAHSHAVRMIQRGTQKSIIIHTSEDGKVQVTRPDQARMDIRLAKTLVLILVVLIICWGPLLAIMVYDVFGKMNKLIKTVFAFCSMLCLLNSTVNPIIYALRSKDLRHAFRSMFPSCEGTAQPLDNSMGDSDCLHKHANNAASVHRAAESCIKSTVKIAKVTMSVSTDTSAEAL

CB2R [2] = molecular target: T2, CB2R (Homo sapiens, UniProt P34972); assay: CB2R radioligand binding competition ([3H]CP55,940); parameters: expressed in transfected cells; host or cells: HEK-293T (HEK-CB2 cell line); details: for Ki: displacement of [3H]CP 55,940, membranes of HEK-293T cells, n = 3; for SI Ki CB1R/Ki CB2R: selectivity index, affinity ratio
T2 sequence (P34972 whole entry): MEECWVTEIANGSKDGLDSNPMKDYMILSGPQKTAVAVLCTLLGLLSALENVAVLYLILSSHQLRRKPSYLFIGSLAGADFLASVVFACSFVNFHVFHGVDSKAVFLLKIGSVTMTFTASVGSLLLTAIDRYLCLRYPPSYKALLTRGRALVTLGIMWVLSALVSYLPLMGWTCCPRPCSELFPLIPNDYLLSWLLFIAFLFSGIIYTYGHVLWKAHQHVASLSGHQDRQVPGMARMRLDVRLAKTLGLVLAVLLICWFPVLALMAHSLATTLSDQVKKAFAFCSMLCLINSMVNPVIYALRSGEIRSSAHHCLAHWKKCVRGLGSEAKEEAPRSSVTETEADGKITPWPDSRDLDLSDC

CB2R [3] = molecular target: T2, CB2R; assay: CB2R MAPK phosphorylation; type: cell-based; parameters: expressed in transfected cells; host or cells: HEK-293T, transient transfection (PEI)
Text: (§1) Initially we tested their ability to modify CB2R-mediated cAMP accumulation, providing insights into their functional behavior as either agonists or antagonists (Table ). Moreover, the signaling profiles of selected ligands were investigated through their impact on β-arrestin recruitment and Mitogen-Activated Protein Kinase (MAPK) phosphorylation pathway, enabling a more comprehensive evaluation of their intracellular signaling profiles (Table ).
(§2) JWH-133, a well-known nonbiased (balanced) agonist, was employed as the reference for comparing the signaling profiles of the tested compounds. An operational model analysis was applied to quantify the functional bias of each CB2R-selective agonist. This involved calculating the bias factor by comparing the signaling pathways: β-arrestin versus cAMP, MAPK versus cAMP, and β-arrestin versus MAPK.

CB2R [4] = molecular target: T2, CB2R; assay: CB2R β-arrestin recruitment; type: cell-based; parameters: expressed in transfected cells; host or cells: HEK-293T, transient transfection (PEI)
Text: as §1, §2

CB2R [5] = molecular target: T2, CB2R; assay: CB2R cAMP determination after forskolin stimulation in transfected HEK-293T cells; type: cell-based; parameters: expressed in transfected cells; host or cells: HEK-293T, transient transfection (PEI)
Description: as §1
HEK-293T cells were grown in Dulbecco’s Modified Eagle’s Medium (DMEM) medium (Gibco, Paisley, Scotland, United Kingdom) supplemented with 2 mM L-glutamine, 100 U/mL penicillin/streptomycin, MEM Non-Essential Amino Acids Solution (1/100) and 5% (v/v) heat inactivated Fetal Bovine Serum (FBS) (Invitrogen, Paisley, Scotland, United Kingdom). Cells were maintained in a humid atmosphere of 5% CO2 at 37 °C. Cells were transiently transfected with the PEI (Polyethylenimine, Sigma, St. Louis, MO, United States) method as previously described and used for functional assays 48 h later.
Signaling experiments have been performed as previously described. Two hours before initiating the experiment, HEK-293T cell-culture medium was replaced by serum-starved DMEM medium. Then, cells were detached, resuspended in growing medium containing […] zardaverine (Tocris, Bristol, U.K.) and placed in 384-well microplates (2500 cells/well). Cells were pretreated (15 min) with cannabinoid compounds (1 nM to 100 μM) -or vehicle- before adding […] forskolin (Tocris, Bristol, U.K.) to induce cAMP accumulation. Readings were performed after 15 min incubation at 25 °C. Homogeneous Time Resolved Fluorescence (HTRF) energy transfer measures were performed using the Lance Ultra cAMP kit (PerkinElmer, Waltham, MA, United States). Fluorescence at 665 nm was analyzed in a PHERA star Flagship microplate reader equipped with an HTRF optical module (BMG Lab Technologies, Offenburg, Germany).

CB2R [6] = molecular target: T2, CB2R; parameters: expressed in transfected cells; host or cells: HEK-293T (HEK-CB2 cell line)
CB1R [7] = molecular target: T1, CB1R; parameters: host or cells: CHO-CB1 C3 cell line
[8] = read-out: CB2R Ki; abused SCRAs and N-methyl analogues, earlier study of the authors; cited from earlier work
[9] = read-out: CB1R Ki; abused SCRAs and N-methyl analogues, earlier study of the authors; cited from earlier work
[10] = at 1 μM, earlier study of the authors; cited from earlier work

Compound	CB1R % at 1 μM (CB1R [1])	Ki (CB2R [2])	SI Ki CB1R/Ki CB2R (CB2R [2])	Ki (CB2R [6]; [8])	Ki (CB1R [7]; [9])	other results
CCCCCn1cc(C(=O)N2CCCC[C@@H]2C(N)=O)c2ccccc21 [18b]	10%	136 ± 5 nM	>100			
NC(=O)[C@@H]1CCCCN1C(=O)c1cn(CCCCCF)c2ccccc12 [18c]	7%	132 ± 4 nM	>100			
NC(=O)[C@H]1CCCCN1C(=O)c1cn(CCCCCF)c2ccccc12 [18d]	15%	169 ± 6 nM	>100			
NC(=O)[C@@H]1CCCCN1C(=O)c1cn(Cc2ccc(F)cc2)c2ccccc12 [18g]	21%	115 ± 5 nM	>100			
NC(=O)[C@H]1CCCCN1C(=O)c1cn(Cc2ccc(F)cc2)c2ccccc12 [18h]	3%	207 ± 9 nM	>100			
CCCCCn1nc(C(=O)N2CCCC[C@H]2C(N)=O)c2ccccc21 [18i]	2%	91.8 ± 4.9 nM	>100			
CCCCCn1nc(C(=O)N2CCCC[C@@H]2C(N)=O)c2ccccc21 [18j]	2%	145 ± 6 nM	>100			
NC(=O)[C@@H]1CCCCN1C(=O)c1nn(CCCCCF)c2ccccc12 [18k]	3%	151 ± 6 nM	>100			
NC(=O)[C@H]1CCCCN1C(=O)c1nn(CCCCCF)c2ccccc12 [18l]	3%	143 ± 5 nM	>100			
NC(=O)[C@@H]1CCCCN1C(=O)c1nn(CC2CCCCC2)c2ccccc12 [18m]	21%	59.5 ± 2.8 nM	>100			
NC(=O)[C@H]1CCCCN1C(=O)c1nn(CC2CCCCC2)c2ccccc12 [18n]	26%	112 ± 4 nM	>100			
COc1ccc2c(c1)c(CCN1CCOCC1)c(C)n2C(=O)c1cccc(Cl)c1Cl [GW405833, reference compound]		5.8 ± 0.4 nM	822			Ki (CB1R [1]): 4770 ± 110 nM
CCCC(C)(C)c1ccc2c(c1)OC(C)(C)[C@@H]1CC=C(C)C[C@@H]21 [JWH-133, reference compound]						EC50 (CB2R [3]): 2.7 ± 0.19 nM; CB2R Emax MAPK (CB2R [3]; normalized to CP 55,940): 98%; EC50 (CB2R [4]): 1.34 ± 0.05 nM; CB2R Emax β-arrestin (CB2R [4]; normalized to CP 55,940): 93%; CB2R Emax AMPc (CB2R [5]; normalized to maximal efficacious concentration of CP 55,940): 98%; EC50 (CB2R [5]; transfected HEK-293T cells, forskolin-stimulated cAMP, read-out: CB2R EC50 AMPc): 6.73 ± 0.5 nM
CCc1c(C(=O)NN2CCCCC2)nn(-c2ccc(Cl)cc2Cl)c1-c1ccc(Br)cc1 [Surinabant, reference compound]		400 ± 6 nM	0.0075			Ki (CB1R [1]): 3 ± 0.2 nM
COC(=O)[C@@H](NC(=O)c1nn(CCCCCF)c2ccccc12)C(C)(C)C [compound 1, 5F-MDMB-PINACA]				0.1 nM	0.8 nM	
COC(=O)[C@@H](NC(=O)c1nn(Cc2ccc(F)cc2)c2ccccc12)C(C)(C)C [compound 2, MDMB-FUBINACA]				0.3 nM	0.83 nM	
COC(=O)[C@@H](NC(=O)c1cn(CC2CCCCC2)c2ccccc12)C(C)C [compound 3, AMB-CHMICA]				3.44 nM	10.5 nM	
COC(=O)[C@@H](NC(=O)c1cn(Cc2ccc(F)cc2)c2ccccc12)C(C)C [compound 4, AMB-FUBICA]						Ki (CB2R [6]; abused SCRAs and N-methyl analogues, earlier study of the authors; read-out: CB2R Ki; cited from earlier work): 20 nM; Ki (CB1R [7]; abused SCRAs and N-methyl analogues, earlier study of the authors; read-out: CB1R Ki; cited from earlier work): 47.8 nM
CCCCCn1nc(C(=O)N[C@H](C(N)=O)C(C)C)c2ccccc21 [compound 5, AB-PINACA]				0.94 nM	1.16 nM	
CC(C)[C@H](NC(=O)c1nn(CC2CCCCC2)c2ccccc12)C(N)=O [compound 6]				1.1 nM	0.9 nM	
CC(C)[C@H](NC(=O)c1cn(CCCCCF)c2ccccc12)C(N)=O [compound 7, 5F-AB-PICA]				8.6 nM	14.8 nM	
CC(C)[C@H](NC(=O)c1cn(Cc2ccc(F)cc2)c2ccccc12)C(N)=O [compound 8, AB-FUBICA]				83.2 nM	35.2 nM	
CC(C)(C)[C@H](NC(=O)c1cn(CC2CCCCC2)c2ccccc12)C(N)=O [compound 9, ADB-CHMICA]				0.76 nM	1.1 nM	
CC(C)(C)[C@H](NC(=O)c1cn(Cc2ccc(F)cc2)c2ccccc12)C(N)=O [compound 10, ADB-FUBICA]				5.15 nM	53.8 nM	
COC(=O)CNC(=O)c1nn(Cc2ccc(F)cc2)c2ccccc12 [compound 11]				125 nM	181 nM	
COC(=O)CN(C)C(=O)c1nn(Cc2ccc(F)cc2)c2ccccc12 [compound 12]				540 nM		CB1R % (1 μM) (CB1R [7]; [10]): 33%
NC(=O)CNC(=O)c1nn(CC2CCCCC2)c2ccccc12 [compound 13]				171 nM	268 nM	
CN(CC(N)=O)C(=O)c1nn(CC2CCCCC2)c2ccccc12 [compound 14]				482 nM		CB1R % (1 μM) (CB1R [7]; [10]): 21%
